The source of these data is ChEMBL document CHEMBL1201862, “PubChem BioAssay data set” (2004).

Each structure is given as a SMILES string.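 How tested: cells in 96-well plates exposed to compound for 48 hours at five concentrations. GI50: concentration for 50% inhibition of growth.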 Activity calls are given as the source filed them. Rule as the data show it: active = GI50 up to about 1.1 µM and inactive = higher.

Test systems include A549; ACHN; CCRF-CEM; DU-145; HL-60; HT-29; Hs-578T; KM12; LOX IMVI; MDA-N; NCI-H226; NCI-H23; OVCAR-5; SF-295; SK-MEL-2; SK-MEL-5; SW-620; TK-10; UACC-257.
What all share (experiment): NCI anticancer screen, dose series, 48 h

With `O=C1/C(=C/c2ccc(O)cc2)CCc2ccc([N+](=O)[O-])cc21`, the GI50 in the assay on A549 is 45 µM (inactive); in the assay with ACHN, > 81.3 µM (inactive); in the assay on CCRF-CEM, 0.419 µM (active); with DU-145, 55.3 µM (inactive); in the assay on HL-60, 5.5 µM (inactive); in the assay on HT-29, > 100 µM (inactive). For the same molecule, the GI50 in the assay on Hs-578T was 35.9 µM (inactive); with KM12, > 76 µM (inactive); in the assay on LOX IMVI, > 100 µM (inactive); in the assay on MDA-N it was > 100 µM (inactive); in the assay on NCI-H226, 28.7 µM (inactive); in the assay with NCI-H23 it was 36.1 µM (inactive). Further, the GI50 was > 51.5 µM (inactive) in the assay with OVCAR-5; 63.1 µM (inactive) with SF-295; 66.5 µM (inactive) in the assay with SK-MEL-2; > 81.8 µM (inactive) in the assay on SK-MEL-5; > 100 µM (inactive) in the assay with SW-620; 45.2 µM (inactive) in the assay on TK-10. For the same molecule, the GI50 with UACC-257 was 97.7 µM (inactive).
On to `Cc1ccccc1NC(=O)CC(=O)NNC(Sc1ccccc1)c1cc(/N=N/c2ccc(Br)cc2)ccc1O` (stereo not given), for which the GI50 was 3.42 µM (inactive) in the assay with A549; 1.82 µM (inactive) with ACHN; 0.43 µM (active) in the assay on CCRF-CEM; 2.21 µM (inactive) in the assay on DU-145; 0.277 µM (active) in the assay with HL-60; 9.48 µM (inactive) in the assay on HT-29. Also, the GI50 in the assay with Hs-578T was > 10 µM (inactive); in the assay on KM12 it was 4.79 µM (inactive); in the assay on LOX IMVI it was 1.49 µM (inactive); in the assay on MDA-N, 3.14 µM (inactive); in the assay on NCI-H226 it was 2.04 µM (inactive); in the assay with NCI-H23, 3.08 µM (inactive). Further, the GI50 is 7.59 µM (inactive) in the assay with OVCAR-5; 2.75 µM (inactive) with SF-295; 5.93 µM (inactive) in the assay with SK-MEL-2; 1.24 µM (inactive) in the assay on SK-MEL-5; 0.723 µM (active) in the assay with SW-620; 1.39 µM (inactive) in the assay on TK-10. Moreover, the GI50 in the assay with UACC-257 was 3.65 µM (inactive).
For the molecule `CCOC(=O)C(NC(=O)CC)(Nc1ccc(S(=O)(=O)Nc2ccc(OC)nn2)cc1)C(F)(F)F` (stereo not given), the GI50 in the assay on A549, in the assay with ACHN, with CCRF-CEM, with DU-145, with HL-60 and with HT-29 was > 100 µM (inactive) throughout. Moreover, the GI50 in the assay with Hs-578T, with KM12, in the assay on LOX IMVI, in the assay with MDA-N, with NCI-H226 and in the assay with NCI-H23 was > 100 µM (inactive) in each case. The GI50 in the assay on OVCAR-5, in the assay on SF-295, with SK-MEL-2, with SK-MEL-5, with SW-620 and with TK-10 was > 100 µM (inactive) throughout. Also, the GI50 with UACC-257 is > 100 µM (inactive).
Turning to `COC(=O)C1(Cc2ccccc2)Cc2ccccc2C1=O` (stereo not given), the GI50 in the assay with A549 was 32.9 µM (inactive); in the assay with ACHN, 36.6 µM (inactive); with CCRF-CEM it was 35.8 µM (inactive); with DU-145 it was 83.4 µM (inactive); in the assay with HL-60 it was 19.7 µM (inactive); in the assay on HT-29, 45.3 µM (inactive). Further, the GI50 is 61.1 µM (inactive) in the assay on Hs-578T; 27.7 µM (inactive) in the assay with KM12; 43.7 µM (inactive) with LOX IMVI; 32.1 µM (inactive) in the assay on MDA-N; 35.6 µM (inactive) in the assay on NCI-H226; 45.8 µM (inactive) in the assay with NCI-H23. The GI50 with OVCAR-5 is > 100 µM (inactive); in the assay on SF-295, 66.8 µM (inactive); with SK-MEL-2, 19.1 µM (inactive); in the assay on SK-MEL-5, 20 µM (inactive); in the assay with SW-620, 55 µM (inactive); with TK-10, 57 µM (inactive). Moreover, the GI50 in the assay on UACC-257 was 45.8 µM (inactive).
For `CC1=C(C(=O)Nc2ccccc2)C(c2ccc(C3C(C(=O)Nc4ccccc4)=C(C)NC(C)=C3C(=O)Nc3ccccc3)cc2)C(C(=O)Nc2ccccc2)=C(C)N1`, the GI50 is 8.05 µM (inactive) in the assay with A549; 2.04 µM (inactive) in the assay on ACHN; 1.58 µM (inactive) in the assay on CCRF-CEM; > 10 µM (inactive) in the assay on DU-145; 2.43 µM (inactive) in the assay with HL-60; 1.85 µM (inactive) in the assay on HT-29. Also, the GI50 with Hs-578T was 2.88 µM (inactive); with KM12 it was 2.09 µM (inactive); in the assay on LOX IMVI, 1.61 µM (inactive); in the assay on MDA-N, 3.23 µM (inactive); in the assay on NCI-H226, 3.96 µM (inactive); in the assay with NCI-H23, 2.86 µM (inactive). Further, the GI50 with OVCAR-5 was 7.35 µM (inactive); in the assay with SF-295, 2.88 µM (inactive); in the assay on SK-MEL-2 it was 2.07 µM (inactive); in the assay with SK-MEL-5 it was 2.26 µM (inactive); with SW-620, 2.11 µM (inactive); in the assay with TK-10, 6.46 µM (inactive). For the same molecule, in the assay on UACC-257, the GI50 was 2.13 µM (inactive).
As to `CCCCCCOc1ccc(NC2=C(Cl)C(=O)c3c(O)ccc(O)c3C2=O)cc1`, the GI50 is 3.27 µM (inactive) in the assay on A549; 3.16 µM (inactive) with ACHN; 2.49 µM (inactive) in the assay with CCRF-CEM; 5.9 µM (inactive) in the assay with DU-145; 1.77 µM (inactive) with HL-60; 2.11 µM (inactive) with HT-29. Moreover, the GI50 was 3.35 µM (inactive) with Hs-578T; 1.88 µM (inactive) in the assay with KM12; 1.67 µM (inactive) in the assay on LOX IMVI; 2.99 µM (inactive) with MDA-N; 3.88 µM (inactive) in the assay on NCI-H226; 2.4 µM (inactive) in the assay on NCI-H23. The GI50 in the assay on OVCAR-5 is > 10 µM (inactive); with SF-295, 5.81 µM (inactive); in the assay on SK-MEL-2 it was 2.96 µM (inactive); with SK-MEL-5, 1.31 µM (inactive); in the assay with SW-620, 2.2 µM (inactive); with TK-10, 6.32 µM (inactive). Moreover, the GI50 with UACC-257 was 3.85 µM (inactive).
For `Cc1ccc(S(=O)(=O)N2CCN(CCN(C)CCN3CCN(S(=O)(=O)c4ccc(C)cc4)CC3)CC2)cc1`, the GI50 in the assay on A549 was 23.3 µM (inactive); in the assay on ACHN it was 17.9 µM (inactive); in the assay on CCRF-CEM it was 18.7 µM (inactive); in the assay with DU-145, 16 µM (inactive); in the assay with HL-60 it was 16.1 µM (inactive); with HT-29 it was 14.5 µM (inactive). For the same molecule, the GI50 in the assay on Hs-578T was 22.3 µM (inactive); with KM12, 15.1 µM (inactive); in the assay on LOX IMVI it was 17.2 µM (inactive); with MDA-N it was 18.9 µM (inactive); in the assay on NCI-H226 it was 25.7 µM (inactive); with NCI-H23, 22.6 µM (inactive). Also, the GI50 was 28.5 µM (inactive) with OVCAR-5; 17.9 µM (inactive) with SF-295; 18.8 µM (inactive) in the assay with SK-MEL-2; 16.3 µM (inactive) in the assay with SK-MEL-5; 16.9 µM (inactive) in the assay on SW-620; 16.1 µM (inactive) in the assay on TK-10. Besides, the GI50 in the assay with UACC-257 is 16.4 µM (inactive).
As to `COc1cc(S(=O)(=O)Nc2nc(-c3ccc(N)cc3)cs2)ccc1Cl`, the GI50 with A549 was 51.5 µM (inactive); in the assay on ACHN it was 66.4 µM (inactive); with CCRF-CEM, 48.5 µM (inactive); with DU-145, > 100 µM (inactive); in the assay on HL-60, 45.7 µM (inactive); in the assay with HT-29, 54 µM (inactive). For the same molecule, the GI50 is 91.4 µM (inactive) in the assay with Hs-578T; 72.1 µM (inactive) in the assay on KM12; 91.8 µM (inactive) in the assay on LOX IMVI; 55.8 µM (inactive) in the assay on MDA-N; 41.7 µM (inactive) with NCI-H226; 45.8 µM (inactive) in the assay with NCI-H23. The GI50 with OVCAR-5 was > 100 µM (inactive); in the assay with SF-295, 43.4 µM (inactive); in the assay on SK-MEL-2 it was 69.5 µM (inactive); with SK-MEL-5, 38.6 µM (inactive); in the assay on SW-620, > 100 µM (inactive); with TK-10, 48 µM (inactive). In the assay on UACC-257, the GI50 is 57.3 µM (inactive).
In the case of `Cc1ccc(CC2(C(=O)O)Cc3ccc(C)cc3C2)cc1` (stereo not given), the GI50 is 72.9 µM (inactive) in the assay on A549; 94.4 µM (inactive) in the assay with ACHN; 49.2 µM (inactive) in the assay on CCRF-CEM; > 100 µM (inactive) with DU-145; > 100 µM (inactive) in the assay with HL-60; > 100 µM (inactive) in the assay on HT-29. The GI50 is > 100 µM (inactive) with Hs-578T; 89.7 µM (inactive) with KM12; > 100 µM (inactive) in the assay with LOX IMVI; > 100 µM (inactive) in the assay on MDA-N; > 100 µM (inactive) in the assay with NCI-H226; 75.5 µM (inactive) with NCI-H23. The GI50 with OVCAR-5 was > 100 µM (inactive); in the assay with SF-295, 68.5 µM (inactive); in the assay with SK-MEL-2, > 100 µM (inactive); in the assay with SK-MEL-5, > 100 µM (inactive); in the assay with SW-620, > 100 µM (inactive); in the assay on TK-10, > 100 µM (inactive). Besides, the GI50 with UACC-257 was > 100 µM (inactive).
Take `COc1ccc(NC(=O)CC(=O)n2nc(C)c(/N=N/c3ccc(C)c(C)c3)c2C)cc1`: the GI50 was > 100 µM (inactive) in the assay on A549; 82.6 µM (inactive) in the assay with ACHN; > 100 µM (inactive) in the assay with CCRF-CEM; > 100 µM (inactive) with DU-145; 48.3 µM (inactive) with HL-60; > 100 µM (inactive) in the assay on HT-29. For the same molecule, the GI50 is 25.2 µM (inactive) with Hs-578T; > 100 µM (inactive) in the assay with KM12; 50.5 µM (inactive) in the assay with LOX IMVI; > 100 µM (inactive) in the assay with MDA-N; 51.3 µM (inactive) in the assay with NCI-H226; 71.4 µM (inactive) in the assay on NCI-H23. Further, the GI50 in the assay with OVCAR-5 is > 100 µM (inactive); in the assay with SF-295, 54.7 µM (inactive); in the assay with SK-MEL-2 it was > 100 µM (inactive); in the assay on SK-MEL-5, > 100 µM (inactive); in the assay with SW-620 it was > 100 µM (inactive); with TK-10, 55.1 µM (inactive). In addition, the GI50 with UACC-257 was > 10 µM (inactive).
